The structures appear in SMILES notation.

The melting point is the temperature of the solid-liquid transition. As for `CCn1c(CCl)nc2c(F)cccc21`, the melting point lay in the range of 115 to 117 °C. On to `CC(C)(C(=O)O)c1cccs1`, for which the melting point fell in the range of 78 to 80 °C.

In turn, `CS(=O)(=O)NCc1ccc(N)cc1` returned a melting point of 146 to 148 °C. Take `CCOC(=O)c1sc2nc(CS(=O)(=O)CC(=O)O)[nH]c(=O)c2c1C`: the melting point fell in the range of 277 to 279 °C. The molecule `CC(C)COc1cn(-c2ccccc2)nc1C(=O)O` returned a melting point of 132 to 134 °C.

Molecule `CC(C)CNC(N)=S` returned a melting point of 99 to 101 °C. Turning to `Cc1ccc(NS(=O)(=O)c2cc(C(=O)O)ccc2C)cc1`, the melting point was in the range of 55 to 57 °C.

`NC(=O)CCC(NS(=O)(=O)c1cccc(C(F)(F)F)c1)C(=O)O` (stereo not given) yielded a melting point of 164 to 166 °C. Next, `Cc1ccc(Oc2ccc3[nH]c(C)c(C)c(=O)c3c2)cc1`: 284 to 286 °C; `O=C(O)C=Cc1cc(Br)ccc1OC(F)F`: 155 to 157 °C. As for `O=C(O)CNc1ccc(C(=O)O)cc1`, the melting point was in the range of 266 to 268 °C. Consider `CC(C)(C)CCCC(=O)O`, for which the melting point was 36 to 38 °C. `O=C(O)c1cc2sc3ccccc3c2s1`: the melting point lay within 249 to 251 °C.

As for `Cc1ccc(-c2ccsc2C(=O)NN)cc1`, the melting point fell in the range of 270 to 273 °C. `CCOC(=O)c1cnn2cccnc12` displayed a melting point of 117 to 119 °C.

As to `Cc1ccc(-c2nn(Cc3ccccc3)cc2/C=C/C(=O)O)cc1`, the melting point fell in the range of 107 to 109 °C.

Molecule `Cc1c(Br)cc(C(=O)O)cc1[N+](=O)[O-]` yielded a melting point of 183 to 185 °C. As to `COc1ccc(Cc2nc3sc4c(c3c(=O)[nH]2)CCC4)cc1OC`, the melting point was 237 to 239 °C. `CC1(C(=O)O)CCCN1C(=O)c1ccccc1` (stereo not given): the melting point fell in the range of 205 to 207 °C.

With `NC1(C(=O)O)CCOC1` (stereo not given), the melting point lay within 244 to 246 °C. For the molecule `CC(O)c1nc2cc(C(F)(F)F)ccc2n1C` (stereo not given), the melting point was in the range of 99 to 101 °C. Regarding `CC(C(=O)O)c1ccccc1F` (stereo not given), the melting point lay in the range of 47 to 49 °C. Take `O=C(Cc1ccc(Br)cc1)NC(C(=O)O)c1ccccc1` (stereo not given): the melting point is 177 to 179 °C. In the case of `CC(Cl)C(=O)Nc1cccc(S(=O)(=O)N(C)C)c1` (stereo not given) it was 163 to 167 °C; in that of `O=C(O)c1ccc2nnnn2c1`, 216 to 218 °C. The molecule `O=C(O)c1cc(Cl)ccc1I` yielded a melting point of 162 to 164 °C. `COc1ccc(S(=O)(=O)Cl)c(Cl)c1Cl` yielded a melting point of 92 to 94 °C. As for `NC(Cc1c[nH]c2ccc([N+](=O)[O-])cc12)C(=O)O` (stereo not given), the melting point was in the range of 259 to 261 °C.

In turn, `Cc1ccc2c(Cl)cc(Cl)c(OCC(=O)O)c2n1` returned a melting point of 209 to 211 °C. In the case of `CC(C)(C)Cc1nc(-c2cccc(C(=O)O)c2)no1` it was 160 to 162 °C. Take `Cc1ccc(-n2cccc2)cc1`: the melting point fell in the range of 82 to 84 °C. Take `NNC(=O)CCc1cccnc1`: the melting point was 92 to 94 °C.

Consider `Cc1ccccc1-c1nnc(CCl)o1`, for which the melting point was 99 to 101 °C. Molecule `CSc1ccc(-c2csc(N)n2)cc1` came in with a melting point of 219 to 221 °C. `CCOC(=O)c1ccn(C)c(=O)c1` showed a melting point of 91 to 93 °C. Molecule `O=C(O)c1cc2ccc(Cl)cc2[nH]1` returned a melting point of 242 to 244 °C. For the molecule `O=C(O)c1noc(-c2ccccc2F)n1`, the melting point was in the range of 189 to 191 °C. Next, `COc1ccc(Br)c(C(N)=S)c1`: 142 to 144 °C; `O=C(Nc1ccccc1F)Nc1cccc2c1CCNC2`: 157 to 159 °C; `N#Cc1ccc(NCCN)nc1`: 103 to 105 °C. With `Cc1nn(C)c(C)c1CCC(=O)O`, the melting point fell in the range of 137 to 139 °C. Next, `COc1ccccc1C1C(C(=O)O)CCC(=O)N1c1ccc(C)cc1` (stereo not given): 205 to 208 °C. The molecule `CS(=O)c1ccccc1N` (stereo not given) gave a melting point of 156 to 158 °C. Regarding `COC(=O)C1CNNC(=O)C1` (stereo not given), the melting point lay within 119 to 121 °C.

Consider `O=C(O)CC=Cc1ccccc1F`, for which the melting point lay in the range of 54 to 56 °C. In the case of `Nc1ncc(-c2ccc(F)cc2)s1` it was 209 to 211 °C; in that of `CNC(=O)COc1ccc(O)cc1`, 125 to 127 °C. `Cn1c(-c2ccccc2)c(C(=O)O)c2ccccc21`: the melting point lay within 192 to 194 °C. The molecule `Cn1cnnc1S(C)(=O)=O` displayed a melting point of 132 to 134 °C. On to `Cc1c(N)cccc1S(=O)(=O)NC(C)(C)C`, for which the melting point lay within 185 to 187 °C. In the case of `O=C(O)C=Cc1cn(-c2ccccc2)nc1-c1cc2ccccc2o1` it was 225 to 227 °C; in that of `N#CCC1CC2=C(CCCC2=O)O1` (stereo not given), 104 to 106 °C; in that of `COC(=O)c1ccc(COc2ccc(C=O)cc2OC)cc1`, 129 to 131 °C. Turning to `O=CC(Br)C=O`, the melting point lay within 132 to 134 °C. Consider `Cn1c(=O)n(C)c2cc(S(=O)(=O)Cl)ccc21`, for which the melting point lay within 176 to 178 °C. In the case of `CCN(CC)S(=O)(=O)c1ccc(N2CCCCC2)c(C(=O)O)c1` it was 157 to 159 °C; in that of `O=C(O)c1ccccc1-c1nc2ccccc2s1`, 190 to 192 °C.

In turn, `CCOc1cccc(C(N)=S)c1` had a melting point of 118 to 120 °C. Regarding `N#CCOc1ccc(Cl)cc1CBr`, the melting point lay in the range of 85 to 87 °C.

In turn, `COc1cccc(COc2cccc(Cl)c2C=O)c1` yielded a melting point of 64 to 66 °C. Consider `N#Cc1c(F)cccc1Oc1ccc(C(=O)O)cc1`, for which the melting point lay within 186 to 188 °C.

As to `COc1cc(OC)cc(-c2cc(N)on2)c1`, the melting point is 116 to 118 °C.

Regarding `Nc1ccc(-c2nc3ccccc3s2)cc1`, the melting point lay within 149 to 151 °C. Next, `Cc1ccc([N+](=O)[O-])cc1S(=O)(=O)N1CCC(C(=O)O)CC1`: 107 to 109 °C. Molecule `O=C(O)C1CCCN1Cc1ccc(F)cc1` (stereo not given) showed a melting point of 242 to 244 °C.

With `COC(=O)c1cccc(Oc2ccnc(Cl)n2)c1`, the melting point is 117 to 119 °C. In the case of `Cc1nc(N2CCCC2)[nH]c(=O)c1CC(=O)O` it was 262 to 264 °C; in that of `Nc1cc(=O)[nH]c(=O)n1Cc1ccccc1`, 284 to 286 °C. Molecule `N#Cc1ccccc1Oc1ccccc1C(=O)O` returned a melting point of 147 to 149 °C.

Molecule `NC1(c2nn[nH]n2)CCCC1` gave a melting point of 229 to 231 °C. Next, `O=C(O)C1CC(=O)N(c2ccc(S(=O)(=O)Cl)cc2)C1` (stereo not given): 157 to 159 °C; `O=C(O)C1CCCN1C(=O)Cc1cccs1` (stereo not given): 139 to 141 °C; `CCc1c(C(=O)O)cnn1Cc1ccccc1`: 124 to 126 °C. Molecule `Cc1n[nH]c(C)c1C(C)C(=O)O` (stereo not given) yielded a melting point of 181 to 183 °C. With `Cc1ccc(NCCC(=O)O)cc1Cl`, the melting point lay within 80 to 82 °C. In the case of `COc1cc(C(N)=S)ccn1` it was 117 to 119 °C; in that of `N#CC1(C(=O)O)CCOCC1`, 162 to 164 °C. As to `NC(=O)c1c[nH]c(C2CC2)n1`, the melting point was in the range of 216 to 218 °C. Regarding `CN1CCCN(c2ccc(C#N)cc2Cl)CC1`, the melting point is 40 to 42 °C. The molecule `Nc1ccnn1C1CCCCC1` showed a melting point of 80 to 82 °C. Take `O=C(CCl)NC1C2CC3CC(C2)CC1C3` (stereo not given): the melting point lay within 118 to 122 °C.

`Cn1ccc(C(=O)N2CCC(CO)CC2)cc1=O`: the melting point lay in the range of 174 to 176 °C. Turning to `Cc1cc(C)c2c(c1)c(C)cc1nnc(S)n12`, the melting point was in the range of 262 to 264 °C. In the case of `C=CC(=O)Nc1cccc(C#N)c1` it was 117 to 119 °C; in that of `O=C(O)c1ccc2c(c1Cl)C(=O)c1ccccc1C2=O`, 199 to 201 °C.

For the origin of these results see a melting point compilation (Tetko et al.).
